Columns and labels:
[1] = system: human myoblast cells; experiment: Human myoblast differentiation (% area eMyHC) with IGF2 and/or sodium butyrate; format: cell-based
Experimental: Fresh media was added every 24 hours. […], cells were pulsed for 2-5 hours with EdU (30 uM), ethanol fixed, stained with Hoescht 3342, immunostained for proliferation—as measured by the percent of cells staining positive for EdU (% EdU)-, and immunostained for differentiation—as measured by the increase in cellular area staining positive for embryonic myosin heavy chain (% eMyHC) relative to the negative controls, which received media and vehicle only. The total area of eMyHc positive cells was analyzed, and treated cells were compared to cells treated with the vehicle alone. […] Significance was determined by a p-value less than 0.05 by the one-way ANOVA Tukey Honest Significant Difference test.
Myoblast were cultured 96 h in the presence of IGF2 at indicated dose. Fresh media and IGF2 was added every 24 h.
Fresh media was added every 24 hours.
Significance was determined by a p-value less than 0.05 by the one-way ANOVA Tukey Honest Significant Difference test.

[2] = system: DM1 human myoblast cells; experiment: Proliferation (EdU) and fusion (% eMyHC area) in DM1 human myoblast; format: cell-based; conditions: 72 h for proliferation, fold change vs vehicle
Experimental: FIG. 7A Bar graph of % EdU+ human myoblast (person) and FIG. 7B % area MyHC in response to IGF2. Myoblast were cultured 72 h for proliferation and 96 h for fusion in the presence of indicated factor. Mean∓S.D. Mean∓SD. Significant p-values (EdU: Vehicle˜IGF2: 6.8E-3, % eMyHC Area: Vehicle˜IGF2: 1.9E-4) (*p<0.05 by Students Two-Tailed T-test, n=3-6).
IGF2 was tested individually for its ability to promote proliferation and/or fusion of human muscle progenitor cells from an individual with myotonic dystrophy type 1 (hMD)—a muscular dystrophy caused by mutations in the DMPK1 gene. […] After 72 or 96 hours, cells were pulsed for 2-5 hours with EdU (30 uM), ethanol fixed, stained with Hoescht 3342, immunostained for proliferation—as measured by the percent of cells staining positive for EdU (% EdU)-, and immunostained for differentiation—as measured by the increase in cellular area staining positive for embryonic myosin heavy chain (% eMyHC) relative to the negative controls, which received media and vehicle only. Wells were imaged on a Keyence BZ-100 at 4×, the images quantified in Cell Profiler, and the statistics were computed in R. Additionally, RNA was extracted from myoblast and select transcript abundances quantified by qPCR. […]

[3] = system: Aged human myoblasts; experiment: Myogenic transcription factor expression in aged human myoblasts (qPCR); format: cell-based
Experimental: RNA was isolated from each well (RNeasy Mini Kit, Qiagen) and cDNA was obtained by reverse-transcription (High Capacity Reverse Transcription Kit, Thermo Fisher Scientific). Real-time quantitative PCR was performed using QuantStudio3 (Thermo Fisher).
Aged human myoblasts were cultured in well plates. […] Cells that had been cultured with IGF2 had increases in levels of MYOG at 48 hours and levels of MYOD at 72 hours.

[4] = Murine pharmacokinetics, intravenous, ELISA, non-compartment analysis; format: in vivo, mice; conditions: mice 10-12 weeks old, dose 10 mg/kg (HSA-IGF2R61A), 600 ug/kg (IGF2)
Experimental: Murine pharmacokinetics (PK) represents the absorption, distribution, metabolism, and elimination of drugs from the body. The pharmacokinetic profile of the therapeutic polypeptides were determined in mice (10-12 weeks old). Mice were fed ad libitum and housed under controlled conditions of lighting (12-hour light/12-hour dark) and temperature (22-24° C.). Mice were allowed to acclimate for 3 days prior to the initiation of the experiment. Intravenous (IV) injection in 10-12 weeks old mice. Engineered mitogenic polypeptides concentrations in the samples were measured by ELISA. Various pharmacokinetics will be calculated as well as the absorption/elimination dynamics following different routes of administration.

[5] = system: 10 week old dystrophic mice (mdx); experiment: Duchenne muscular dystrophy model, 10 week old dystrophic mice (mdx); format: in vivo; conditions: 150 μg/kg with 1.2 g/kg sodium butyrate subcutaneously every 24 hours
Experimental: Between 3-6 weeks old, the skeletal muscle of mdx mice undergoes severe necrosis followed by an increase in the activation of satellite cells to promote muscle regeneration. Treatment with IGF2 fusion polypeptide described herein can improve the regeneration process and therefore muscle health. Mice were fed ad libitum and housed under controlled conditions of lighting (12-hour light/12-hour dark) and temperature (22-24° C.). Mice were allowed to acclimate for 3 days prior to the initiation of the experiment. During the acclimation period, the weight, forelimb and both limb grip strength as well as in vivo tetanic force were assessed to determine the baseline strength of each mouse. 10 week old dystrophic mice (mdx) were injected with the IGF2 fusion polypeptide with sodium butyrate subcutaneously for 14 days. At day 7, forelimb and both grip strength are measured as described in Example 4. BrdU was injected on days 12, 13 and 14. On days 13, 14 and 15, forelimb and both limb grip strength and in vivo tetanic force were tested, and an endurance test to determine max distance and max speed was performed using methods described in Example 4.
Mice were euthanized. The right tibialis anterior and gastrocnemius were collected, immersed in Tissue-TEK OCT and then flash frozen in a chilled isopentane bath precooled in liquid nitrogen and stored at −80° C. Tissue was sectioned and stained for Laminin to determine the cross sectional area (CSA) of muscle fibers, for eMyHC to measure new fiber formation and for BrdU to assess the proliferation rate. The left anterior tibialis and gastrocnemius were collected and flash frozen in liquid nitrogen for molecular analysis that include qPCR and western blot.

With “IGF2: Human IGF2 amino acid sequence, SEQ ID NO: 29” the “% eMyHC” value ([1]; IGF2 0.015 ug/mL alone, 96 h (FIG. 3B/3C)) was 10.843%, the “% eMyHC” value ([1]; IGF2 0.03 ug/mL alone, 48 hours (FIG. 4A/4B)) was 16.620% and the “EdU FC” value [2] was 2.18. For the same substance, the MYF5 fold change ([3]; 48 h) was 0.409, the MYOD1 fold change ([3]; 48 h) was 0.519 and the MYOG fold change ([3]; 48 h) was 5.756. For the same substance, the MYF5 fold change ([3]; 72 h) was 0.708, the MYOD1 fold change ([3]; 72 h) was 5.723 and the MYOG fold change ([3]; 72 h) was 0.018. For the same substance, the Half-life [4] was 2.85 h, the bothlimb grip strength [5] was “effective at improving” and the forelimb grip strength [5] was “effective at improving”. The total work [5] was “effective at improving”, the treadmill running distance [5] was “effective at improving” and the “treadmill running time to exhaustion” value [5] was “effective at improving”. The muscle weight ([5]; vs vehicle) was “effective at improving”.
